Assay results published in publication PMC11235159, “Targeting a microbiota Wolbachian aminoacyl-tRNA synthetase to block its pathogenic host” (Science Advances, 2024).
Read-outs that look alike come from different tables or passages of the source.

What was measured:
[1] = molecular target: T1, Wolbachia LeuRS (full-length) (Wolbachia sp. subsp. Brugia malayi, UniProt Q5GS31); assay: Reactivation rate (half-life of inhibition) of Wolbachia LeuRS after dilution of inhibitor complex; format: biochemical; details: time for LeuRS to recover 50% of its activity after 200-fold dilution
Description: Wolbachianinfection model.
All reactions were performed in […]

[2] = tested on: W. pipientis (wAlbB) in C6/36 cells; assay: A·WOL anti-Wolbachia screening assay in infected C6/36 (wAlbB) insect cells; format: cell-based, Wolbachia pipientis; details: for EC50: Wolbachia pipientis, 168 h, 7 days
Description: To identify active compounds against Wolbachia, we carried out a high-throughput screening assay by testing a library of 202 benzoxaborole compounds in a host-cell model of Wolbachia infection ([5], [18]), which yielded an 18% hit rate. […] The screening in cells was combined with activity experiments (aminoacylation) performed with recombinant full-length Wolbachia LeuRS protein, which were used to calculate the half-maximum inhibitory concentration (IC50) for the most interesting compounds identified in the cell screening. Thus, this yielded compounds with both good anti-Wolbachian in vitro activity and in vivo efficacy, with representative compounds shown in table S1. […] Moreover, the potent in vitro activity of Cmpd9 translated in very good in cellulo efficacy (EC50 = 90 nM) in the Wolbachia infection model (Fig. 1, D and E, and table S1).
The efficacy of compounds, determined as EC50 against Wolbachia in infected host cells, was determined through the anti-Wolbachia consortium’s (A·WOL) routine screening assay as described previously ([18], [27], [29]). […] Compounds were incubated for 7 days with 2000 cells per well on a 384-well plate (CellCarrier-384 Ultra, PerkinElmer) in Leibovitz media (Life Technologies) supplemented with 20% fetal bovine serum (FBS, Thermo Fisher Scientific), 2% tryptose phosphate broth (Sigma-Aldrich), and 1% nonessential amino acids (Sigma-Aldrich). The endpoint readout utilized DNA staining of both the host cell nuclei and intracellular Wolbachia (SYTO 11) combined with a high content imaging system (Operetta, PerkinElmer) and analyzed using the associated Harmony software through a cytoplasm texture analysis. Stock solutions at 10 mM of chemical compounds were prepared in dimethyl sulfoxide (DMSO). Chemical compounds were provided by chemical manufactures (ChemPartner and Anacor Pharmaceuticals), and quality control was verified by NMR spectroscopy (^1H-NMR) and liquid chromatography coupled to mass spectrometry. […]
†The half-maximum effective concentrations (EC50) were calculated in cells infected with Wolbachia […]

[3] = molecular target: Wolbachia LeuRS (residues 219 to 418) (Wolbachia sp. subsp. Brugia malayi, UniProt Q5GS31); assay: Thermal shift assay (DSF), Wolbachia LeuRS editing domain; format: binding; details: wild-type Wolbachia LeuRS construct, in the presence of AMP, vs free protein
Description: The thermal shift assays (TSAs) were performed using a qPCR CFX96 (Bio-Rad) with the FRET scan mode. Samples were prepared in a TSA buffer containing 50 mM Hepes (pH 7.5) and 150 mM NaCl. Each well contained 2 μl of samples as prepared for the crystallization trials, 18 μl of TSA buffer, and 20 μl of 10× SYPRO orange (S6650, Thermo Fisher Scientific).

[4] = ITC titration of compound into AMP in the absence of protein (adduct formation); format: binding; details: no protein
Description: To quantitatively assess the formation of the adenosine-based inhibitor adducts, we performed ITC experiments by titrating Cmpd9 into AMP in the absence of protein (fig. S3D). […]
spectra of AMP/ATP alone or in equimolar (5 mM) mixtures with Cmpd6. A zoomed-in view on the aromatic NMR signals of AMP/ATP is shown. Upon addition of the compounds, the NMR signals of the aromatic groups of AMP/ATP split into an additional two peaks corresponding to the two adducts formed. (C) Spontaneous cyclization of Cmpd6 with ATP/AMP leading to the formation of two diastereomer adducts based on the pseudo symmetry of the ribose. For convenience, adducts with an exo-ribose in panel c) are denote as ty pe “a”, and those with endo-ribose as adducts of type “b”. (D) Isothermal Titration Calorimetry experiment with Cmpd9 injected into AMP leading to the formation of adducts by Cmpd9.
The experiment was performed in triplicate.

[5] = molecular target: Wolbachia LeuRS (Wolbachia sp. subsp. Brugia malayi, UniProt Q5GS31); details: ITC; for binding to Wolbachia LeuRS (in words): in the absence of AMP; for -T∆S / ∆G / ∆H: in the presence of AMP
Description: We designed constructs of the Wolbachia LeuRS editing domain (fig. S1), which bear the putative drug-binding pocket, for expression and purification of recombinant proteins. Two constructs gave soluble and well-behaving proteins that were used for biophysical and structural studies: a construct encoding for residues 219 to 418, herein named Wolbachia LeuRS; and another construct named Wolbachia LeuRS D1, for which part of an insertion specific to Wolbachia LeuRS (herein denoted as i1) and predicted to be highly disordered was partially deleted (354 to 377) (fig. S1). […] To quantitatively assess the affinity of these compounds to Wolbachia LeuRS, isothermal titration calorimetry (ITC) experiments were carried out.
ITC measurements were performed on a MicroCal iTC200 (GE Healthcare, PA) at 25°C. Wolbachia LeuRS samples were previously dialyzed into the ITC buffer 50 mM Hepes-KOH, pH 7.5, 30 mM KCl, 30 mM MgCl2, and 5 mM β-mercaptoethanol and adjusted to a final concentration of 70 μM. […] A typical ITC experiment consisted of 26 injections of 1.5 μl every 180 s at a stirring speed of 750 rpm. The raw data were processed using MicroCal PEAQ-ITC (v. 1.0.0.1259, Malvern) and Microcal Origin for ITC (v. 7.0).
Thermodynamic parameters were calculated from fitting the binding isotherms to a one-site binding site and
independent model. Experiments were done at least in duplicates.
All the experiments were performed in the presence of AMP, which acts as a surrogate of ATP or tRNALeu
terminal adenosine (Ade76).

[6] = molecular target: T1, Wolbachia LeuRS (full-length); assay: biochemical
Description: The full-length Wolbachia LeuRS construct corresponds to residues 1 to 865 of Wolbachia sp. Brugia malayi (Uniprot Q5GS31).
The IC50 values were calculated using a similar approach as described earlier ([19], [20]). Briefly, Wolbachia full-length LeuRS, total E. coli tRNA crude extract (Roche), and compounds were preincubated for 20 min in 50 mM Hepes-KOH (pH 8.0), 30 mM MgCl2, 30 mM KCl, 0.02% (wt/vol) bovine serum albumin, and 1 mM dithiothreitol with 20 μM [^14C]leucine (306 mCi/mmol; PerkinElmer) at 30°C. Reactions were started by the addition of 4 mM ATP and, at specific times, tRNA was precipitated by the addition of 10% (w/v) trichloroacetic acid (TCA), recovered by filtration (Millipore Multiscreen; MSHAN4B50), washed with 5% TCA (w/v), and counted by a liquid scintillation counter (Wallac). […] The reactivation rates (T½) were determined by measuring the time required for Wolbachia LeuRS to recover 50% of its activity. […] LeuRS inhibitor complexes were then diluted 200-fold, and enzyme activity was determined at various time intervals, as described before. Compound reactivation rates were determined by fitting the LeuRS activity reactivation curves to a one-phase exponential decay model (GraphPad Prism).
*The half-maximum inhibitory concentrations (IC50) and half-life inhibition times (T ½) were calculated from aminoacylation assays with recombinant protein and tRNA (see methods). […]

Chain of Wolbachia LeuRS (Q5GS31 219-418): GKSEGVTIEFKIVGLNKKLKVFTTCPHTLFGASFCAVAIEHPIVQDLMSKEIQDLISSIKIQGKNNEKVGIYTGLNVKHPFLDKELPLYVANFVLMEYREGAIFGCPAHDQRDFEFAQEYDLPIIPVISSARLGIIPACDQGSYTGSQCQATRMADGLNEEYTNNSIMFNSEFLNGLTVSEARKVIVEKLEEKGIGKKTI
T1 sequence (Q5GS31 whole entry): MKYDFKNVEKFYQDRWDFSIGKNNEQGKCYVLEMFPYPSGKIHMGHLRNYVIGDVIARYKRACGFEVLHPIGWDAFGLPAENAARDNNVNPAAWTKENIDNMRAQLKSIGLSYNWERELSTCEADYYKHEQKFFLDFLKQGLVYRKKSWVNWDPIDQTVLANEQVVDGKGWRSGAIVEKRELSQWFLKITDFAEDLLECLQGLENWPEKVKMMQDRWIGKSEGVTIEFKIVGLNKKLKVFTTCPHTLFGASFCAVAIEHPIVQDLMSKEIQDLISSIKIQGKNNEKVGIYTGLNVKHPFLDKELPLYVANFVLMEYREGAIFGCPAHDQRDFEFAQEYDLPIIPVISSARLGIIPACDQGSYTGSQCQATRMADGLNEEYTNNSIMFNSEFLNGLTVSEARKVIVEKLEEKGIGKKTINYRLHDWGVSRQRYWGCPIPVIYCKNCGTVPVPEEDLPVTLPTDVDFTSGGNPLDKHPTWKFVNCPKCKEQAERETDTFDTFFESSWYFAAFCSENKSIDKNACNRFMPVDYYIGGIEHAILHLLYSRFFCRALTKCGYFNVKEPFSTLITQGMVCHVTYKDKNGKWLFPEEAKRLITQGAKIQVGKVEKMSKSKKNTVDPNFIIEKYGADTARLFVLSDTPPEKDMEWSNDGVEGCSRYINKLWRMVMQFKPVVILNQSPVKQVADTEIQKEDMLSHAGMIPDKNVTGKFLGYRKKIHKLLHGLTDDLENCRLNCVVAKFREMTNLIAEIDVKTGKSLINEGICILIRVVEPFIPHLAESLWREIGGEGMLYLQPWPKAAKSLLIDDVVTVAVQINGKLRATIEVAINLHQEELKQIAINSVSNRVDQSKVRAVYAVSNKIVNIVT
Chain of Wolbachia LeuRS (residues 219 to 418) (Q5GS31 219-418): as the sequence (Q5GS31 219-418) above

SMILES | T ½ (half-life inhibition time, reactivation rate) [1] [h] | EC50 ([2]; C6/36 (wAlbB) cells, read-out: Efficacy in Infected Host EC50) [µM] | increase of the melting temperature ∆Tm [3] [°C] | binding isotherm with AMP (in words) ([4]; compared with Cmpd9 into AMP) | binding to Wolbachia LeuRS (in words) [5] | -T∆S [5] [kcal/mol] | ∆G [5] [kcal/mol] | ∆H [5] [kcal/mol] | IC50 [6] [µM] | Wolbachia load in host cells (in words) ([2]; 9 μM for 7 days, C6/36 (wAlbB)) | EC50 ([2]; Wolbachia infection model, C6/36 (wAlbB), read-out: in cellulo efficacy EC50) [µM] | Kd ([4]; compound titrated into AMP, one-site binding model) [µM]
NC[C@H]1OB(O)c2c(OCCC(=O)Nc3nccs3)ccc(Br)c21 [Cmpd6] | 0.0183 | > 10 | 13 | equivalent binding isotherm | did not bind | -4.48 | -10.08 | -5.60 | 0.06 |  |  | 
CCCC(N)C(=O)NC1C(O)C(CO)OC1n1cnc2c(N)ncnc21 (stereo not shown) [Nva2AA, reference compound] |  |  |  |  |  | 1.79 | -5.94 | -7.73 |  |  |  | 
CN(CCCOc1ccc(Br)c2c1B(O)O[C@@H]2CN)Cc1ccccc1 [Cmpd9] | 3.77 |  | 13 |  | did not bind | -5.31 | -11.24 | -5.93 | 0.19 | Reduction of Wolbachia load | 0.09 | 1000
